Source: PMC12566046, “Arylpiperazinyl-Benzocycloheptapyrrole-Carboxamides Endowed with Dual Anticancer and Antiviral Activities” (Molecules, 2025)
Like-named read-outs stand apart in the source and are kept apart here.

Columns and labels:
[1] = test system: IAV strain A/PR/8/34 (H1N1)
in vitro [2] = conditions: African green monkey
[3] = Cytotoxicity on uninfected Huh-7 cells (WST-8, crystal violet); conditions: human, uninfected Huh-7 cells
Method: The toxicity of the compounds at the same concentration was tested on the same cells in parallel.
Cytotoxic effects were evaluated on uninfected cells using the WST-8 assay (Orangu, Cell Guidance Systems, Cambridge, UK) and the crystal violet assay [23]. […] Huh-7, MDCK, and Vero TMPRSS cells were seeded at 1 × 10^4, 1.5 × 10^4, and 1.2 × 10^4 cells/well, respectively, and incubated for 48 h (Huh-7 and MDCK) or 24 h (VERO TMPRSS), following conditions matching those of the corresponding antiviral assays in terms of timing and culture medium. At the end of incubation, the medium was replaced with a 10% WST-8 solution in DMEM and incubated for 1 h at 37 °C. Optical density (OD) was then measured at 450 nm using a Varioskan LUX plate reader (ThermoFisher Scientific, Milano, Italy). Subsequently, cells were fixed with 4% buffered formalin solution (Merck®, Darmstadt, Germany), stained with 1% crystal violet (Merck®, Darmstadt, Germany), and the dye was solubilized in 30% acetic acid for 30 min under shaking. OD was then measured at 595 nm as an additional readout of cell viability. The percentage of viability at each concentration was calculated using the formula:% viability = 100 × (ODcompound/ODuntreated control) where ODcompound and ODuntreated are the OD of the cells treated with compound or DMSO, respectively.
The CC50 value was determined by nonlinear regression analysis on GraphPad Prism 7 (San Diego, CA, USA).

[4] = test system: UACC-62 (melanoma cell line); assay: NCI-60 single-dose assay; assay type: cell-based, human; conditions: Homo sapiens, UACC-62, read-out: growth inhibition (GI%) and cytotoxicity (negative values)
Text: (§1) We first evaluated the cytotoxic activity of tricyclic-pyrrole carboxamides 1–20 using the NCI-60 cell line panel, representing nine different human cancers: leukemia, melanoma, and cancers of the lung, colon, central nervous system (CNS), ovary, kidney, prostate, and breast (the one-dose graph for compounds 1–20 is reported in Supplementary Materials, Figures S43–S62). Compounds 1, 5, 10, 11, 17, and 20 satisfied pre-determined threshold inhibition criteria in a minimum number of cell lines; therefore, they were also tested in the full five-dose assay (Figures S63–S68 in the Supplementary Materials).

[5] = test system: SK-MEL-2 (melanoma cell line); assay: NCI-60 single-dose assay; assay type: cell-based, human; conditions: Homo sapiens, SK-MEL-2, read-out: growth inhibition (GI%) and cytotoxicity (negative values)
Text: as §1

[6] = test system: BT-549 (breast cancer cell line); assay: NCI-60 single-dose assay; assay type: cell-based, human; conditions: Homo sapiens, BT-549, read-out: growth inhibition (GI%) and cytotoxicity (negative values)
Text: as §1

[7] = test system: SK-MEL-28 (melanoma cell line); assay: NCI-60 single-dose assay; assay type: cell-based, human; conditions: Homo sapiens, SK-MEL-28, read-out: growth inhibition (GI%) and cytotoxicity (negative values)
Text: as §1

M14 (melanoma cell line) = assay: NCI-60 single-dose assay; assay type: cell-based, human; conditions: Homo sapiens, M14, read-out: growth inhibition (GI%) and cytotoxicity (negative values)
Text: as §1

[8] = test system: MDA-MB-231/ATCC (breast cancer cell line); assay: NCI-60 single-dose assay; assay type: cell-based, human; conditions: Homo sapiens, MDA-MB-231, read-out: growth inhibition (GI%) and cytotoxicity (negative values)
Text: as §1

[9] = test system: LOX IMVI (melanoma cell line); assay: NCI-60 single-dose assay; assay type: cell-based, human; conditions: Homo sapiens, LOX IMVI, read-out: growth inhibition (GI%) and cytotoxicity (negative values)
Text: as §1

[10] = test system: MALME-3M (melanoma cell line); assay: NCI-60 single-dose assay; assay type: cell-based, human; conditions: Homo sapiens, Malme-3M, read-out: growth inhibition (GI%) and cytotoxicity (negative values)
Text: as §1

[11] = test system: T-47D (breast cancer cell line); assay: NCI-60 single-dose assay; assay type: cell-based, human; conditions: Homo sapiens, T47D, read-out: growth inhibition (GI%) and cytotoxicity (negative values)
Text: as §1

[12] = test system: SK-MEL-5 (melanoma cell line); assay: NCI-60 single-dose assay; assay type: cell-based, human; conditions: human
Text: as §1

[13] = test system: MDA-MB-468 (breast cancer cell line); assay: NCI-60 single-dose assay; assay type: cell-based, human; conditions: Homo sapiens, MDA-MB-468, read-out: growth inhibition (GI%) and cytotoxicity (negative values)
Text: as §1

[14] = test system: MDA-MB-435 (melanoma cell line); assay: NCI-60 single-dose assay; assay type: cell-based, human; conditions: Homo sapiens, MDA-MB-435, read-out: growth inhibition (GI%) and cytotoxicity (negative values)
Text: as §1

[15] = test system: UACC-257 (melanoma cell line); assay: NCI-60 single-dose assay; assay type: cell-based, human; conditions: Homo sapiens, UACC-257, read-out: growth inhibition (GI%) and cytotoxicity (negative values)
Text: as §1

[16] = test system: EKVX (non-small cell lung cancer cell line); assay: NCI-60 single-dose assay; assay type: cell-based, human; conditions: Homo sapiens, read-out: growth inhibition (GI%) and cytotoxicity (negative values)
Text: as §1

[17] = test system: MCF-7 (breast cancer cell line); assay: NCI-60 single-dose assay; assay type: cell-based, human; conditions: Homo sapiens, MCF7, read-out: growth inhibition (GI%) and cytotoxicity (negative values), MCF-7, 10^−5 M
Text: as §1

in vitro [18] = conditions: dog
[19] = test system: IAV strain A/PR/8/34 (H1N1); assay: microbe, parasite or virus in culture; conditions: Influenza A virus, MDCK
[20] = test system: ZIKV, strain Brazil/2016/INMI1; assay: ZIKV viral yield reduction assay on Huh-7 cells; assay type: cell-based, Zika virus; conditions: Zika virus, Huh-7, read-out: ZIKV/Huh‐7 EC50
Method: We developed a protocol to screen the potential antiviral activity of compounds 1–20 against ZIKV (strain Brazil) on Huh-7 cells, against an H1N1 IAV strain (PR/8/1934) on MDCK cells, and against SARS-CoV-2 (strain Milano) on Vero-TMPRSS. Each compound was tested in duplicate at concentrations of 50 μM, 5 μM, and 0.5 μM. Treatment was applied immediately after infection, and at 24–48 h post-infection, supernatants were collected to assess viral yield, determined as PFU/mL for ZIKV and SARS-CoV-2 or as TCID50/mL for IAV. The test allowed us to evaluate both the antiviral action and the cytotoxicity of each compound, comparing them with reference compounds, such as sofosbuvir for ZIKV and EIDD-1931 for IAV and SARS-CoV-2 (Supplementary Materials, Figures S87–S89).
Viral yield reduction assays for ZIKV and SARS-CoV-2 were performed as previously described by Plicanti. Briefly, 1 × 10^4 Huh-7 cells/well and 1.2 × 10^4 VERO TMPRSS cells/well were infected with ZIKV (MOI 1) or SARS-CoV-2 (MOI 0.05) in a primary 96-well plate for 2 h at 37 °C, 5% CO2. […] Supernatants were collected after 48 h (Huh-7) or 24 h (VERO TMPRSS), diluted 3-fold, and added onto VERO E6 or VERO TMPRSS monolayers, respectively. After 2 h at 37 °C, the inoculum was replaced with 0.75% carboxymethyl cellulose (Merck®, Darmstadt, Germany) in DMEM 2% FBS. After 48–72 h, cells were then fixed with 4% buffered formalin solution (Merck®, Darmstadt, Germany) and stained with 1% crystal violet (Merck®, Darmstadt, Germany). Titres and percentage of inhibition were calculated as follows:
PFU/mL = number of plaques*3^n/vol infection, where n is the dilution where plaques were counted:% inhibition = 100 × (1 − Titre-compound/Titre-untreated control) where Titre-compound and Titre-untreated control are the titres (PFU/mL) obtained on cells treated with compound or DMSO, respectively.
SI was obtained by dividing CC50 by EC50 for each drug/virus/cell line. Compounds with SI values ≥ 10 were active in vitro.

NCI-60 cell line panel = assay: NCI-60 single-dose assay, whole panel; assay type: cell-based, human; conditions: summary over the panel
Text: as §1

[21] = Cytotoxicity on uninfected MDCK cells (WST-8, crystal violet); conditions: dog

## O=C(NCCN1CCN(c2ccc(Cl)c(Cl)c2)CC1)c1c(Cl)[nH]c2c1CCCc1ccccc1-2 [Compound 19]
[1]; IAV, MDCK cells, CC50/EC50
  selectivity index (SI): 21.36
[1]; preliminary screening
  IAV/MDCK SI: < 12.17
In vitro [2]
  CC50 at 24 h: 40.8 µM
[3]
  CC50 at 48 h: 12 µM
[4]
  inhibition at 10 µM: < 60%
[5]
  inhibition at 10 µM: < 60%
[6]
  inhibition at 10 µM: < 60%
[7]
  inhibition at 10 µM: < 60%
M14 (melanoma cell line)
  inhibition at 10 µM: < 60%
[8]
  inhibition at 10 µM: < 60%
[9]
  inhibition at 10 µM: < 60%
[10]
  inhibition at 10 µM: < 60%
[11]
  inhibition at 10 µM: < 60%
[12]
  growth inhibition (GI%) and cytotoxicity (negative values): −24.28%
[13]
  inhibition at 10 µM: 94.2%
[14]
  inhibition at 10 µM: < 60%
[15]
  inhibition at 10 µM: < 60%
[16]
  inhibition at 10 µM: 61.7%
[17]
  inhibition at 10 µM: < 60%
In vitro [18]
  CC50: < 50 µM
[19]; 48 h
  EC50: 4.31 µM
[19]; read-out: IAV/MDCK EC50
  EC50: 4.11 µM
[20]
  EC50: 4.08 µM
NCI-60 cell line panel
  growth inhibition (GI%) reached against cancer cell lines of the NCI-60 panel: > 90%
[21]
  CC50 at 48 h: 92.1 µM
